Common to all, as to format: cell-based
Test [1] addresses T1, F256A CLC-Ka (Homo sapiens, UniProt P51800, F256A).
T1 sequence (P51800 1-687 F256A): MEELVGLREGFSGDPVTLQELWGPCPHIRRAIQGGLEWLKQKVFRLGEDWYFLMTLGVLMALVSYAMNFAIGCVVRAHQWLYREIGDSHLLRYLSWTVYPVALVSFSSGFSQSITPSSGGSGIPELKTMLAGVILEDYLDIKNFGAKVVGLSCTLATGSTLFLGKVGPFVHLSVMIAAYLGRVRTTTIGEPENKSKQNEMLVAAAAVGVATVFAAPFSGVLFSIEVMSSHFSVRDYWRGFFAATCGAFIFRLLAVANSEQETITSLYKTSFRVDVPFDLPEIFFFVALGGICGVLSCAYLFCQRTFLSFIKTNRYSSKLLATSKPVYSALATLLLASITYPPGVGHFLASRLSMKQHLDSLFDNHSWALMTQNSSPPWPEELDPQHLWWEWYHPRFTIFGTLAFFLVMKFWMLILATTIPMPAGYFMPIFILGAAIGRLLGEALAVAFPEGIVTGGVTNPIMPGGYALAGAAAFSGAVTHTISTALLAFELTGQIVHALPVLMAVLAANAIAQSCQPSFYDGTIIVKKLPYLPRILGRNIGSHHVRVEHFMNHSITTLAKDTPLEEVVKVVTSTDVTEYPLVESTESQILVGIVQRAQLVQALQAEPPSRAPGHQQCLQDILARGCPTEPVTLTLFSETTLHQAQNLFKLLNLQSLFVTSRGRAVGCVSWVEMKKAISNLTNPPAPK
T1 sequence (Q8WZ55 1-320 Y98A partner): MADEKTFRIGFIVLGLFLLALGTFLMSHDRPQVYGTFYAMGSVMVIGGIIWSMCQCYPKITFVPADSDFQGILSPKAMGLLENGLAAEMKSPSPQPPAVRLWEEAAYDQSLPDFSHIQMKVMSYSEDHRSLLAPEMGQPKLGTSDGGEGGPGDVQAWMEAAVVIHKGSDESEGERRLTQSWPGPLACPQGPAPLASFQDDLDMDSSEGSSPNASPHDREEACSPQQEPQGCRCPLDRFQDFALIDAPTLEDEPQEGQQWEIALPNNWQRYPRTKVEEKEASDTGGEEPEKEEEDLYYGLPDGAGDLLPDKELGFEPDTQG
In words: NFA modulation of F256A CLC-Ka currents, voltage clamp in Xenopus oocytes.

In test [2] the target is T1, F256A CLC-Ka. The note with it: 200 μM NFA.
Test [3] addresses T2, F256A CLC-K1/barttin (Rattus norvegicus, UniProt Q06393, F256A).
T2 sequence (Q06393 1-687 F256A): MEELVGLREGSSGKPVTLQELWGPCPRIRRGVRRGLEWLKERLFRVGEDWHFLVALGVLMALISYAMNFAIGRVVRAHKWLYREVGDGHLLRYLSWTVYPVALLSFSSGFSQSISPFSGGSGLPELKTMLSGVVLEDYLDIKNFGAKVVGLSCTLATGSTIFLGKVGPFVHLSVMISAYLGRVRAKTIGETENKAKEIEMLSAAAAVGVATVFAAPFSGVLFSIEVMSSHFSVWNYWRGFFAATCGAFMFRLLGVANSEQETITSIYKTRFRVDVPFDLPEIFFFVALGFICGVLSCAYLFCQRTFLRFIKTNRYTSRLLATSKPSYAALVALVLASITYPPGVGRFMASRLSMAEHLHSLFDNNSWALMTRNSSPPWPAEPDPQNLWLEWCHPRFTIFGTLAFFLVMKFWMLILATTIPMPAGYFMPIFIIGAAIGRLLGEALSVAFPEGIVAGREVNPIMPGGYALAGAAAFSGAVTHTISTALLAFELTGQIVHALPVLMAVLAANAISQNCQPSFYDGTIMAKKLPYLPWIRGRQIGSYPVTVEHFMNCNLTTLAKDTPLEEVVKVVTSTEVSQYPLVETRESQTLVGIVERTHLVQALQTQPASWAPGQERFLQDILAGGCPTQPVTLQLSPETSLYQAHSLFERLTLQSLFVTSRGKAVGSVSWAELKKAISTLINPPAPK
T2 sequence (Q8WZ55 1-320 Y98A partner): T1 sequence (Q8WZ55 1-320 Y98A partner)
In words: NFA effect on F256A CLC-K1/barttin, voltage clamp in Xenopus oocytes.

For test [4], the target named is T3, F256A CLC-K1 (Rattus norvegicus, UniProt Q06393, F256A).
T3 sequence (Q06393 1-687 F256A): T2 sequence (Q06393 1-687 F256A)
In words: NFA effect on F256A CLC-K1 without barttin, voltage clamp in Xenopus oocytes. The note with it: expressed without barttin.

Test [5] concerns the target T4, N257A CLC-Ka (Homo sapiens, UniProt P51800, N257A).
T4 sequence (P51800 1-687 N257A): T1 sequence (P51800 1-687 F256A) with A256F, N257A
T4 sequence (Q8WZ55 1-320 Y98A partner): T1 sequence (Q8WZ55 1-320 Y98A partner)
In words: NFA effect on N257A CLC-Ka currents, voltage clamp in Xenopus oocytes.

Test [6] has as its target T4, N257A CLC-Ka. The note with it: 4 μM NFAext in the presence of 100 μM CPAint; −100 mV and 60 mV.

The source of these data is paper PMC4331650 (Biochimica et Biophysica Acta, 2014).

Changes are numbered by the printed parent chain.

`O=C(O)c1cccnc1Nc1cccc(C(F)(F)F)c1` [NFA, niflumic acid]: the potentiation of currents result in test [1] (2 μM NFA) was “two-fold”. Besides, the current increase in test [1] (200 μM NFA, F256A CLC-Ka in Xenopus oocytes) was ~ 25 fold. The “effect of NFA on currents” value was “potentiated” in test [1] (all concentrations tested, from 1 to 2000 μM); “transient potentiation” in test [3] (10 μM NFA, steady state currents not increased); “no potentiation” in test [4]; “only blocked” in test [5] (all [NFA]ext tested, from 1 to 2000 μM). Besides, in test [1] (at 500 μM NFA, currents at 60 mV normalized to 0 NFA), the “maximal stimulation (potentiation) of currents” value amounted to 37 fold. For the same molecule, in test [2] (judged from variance–mean plots without curvature), the “open probability after potentiation by NFA” value is on record as “below 0.5”. Besides, in test [2] (−100 mV and 60 mV, noise analysis), the “effect on single channel conductance” value is “does not change significantly”. In addition, in test [3] (transient potentiation extrapolated by single-exponential function), the “maximal potentiation (I1/I0)” value was “around 1.9 fold”. The inhibition at 5 µM in test [5] (read-out: inhibition of currents) is ~90%. In addition, in test [6], the “effect of NFA on single channel conductance” value is “does not affect the conductance”.
